Data from patent publication US9718813B2, “Imidazolin-5-one derivative useful as FASN inhibitors for the treatment of cancer” (Janssen Pharmaceutica, NV, priority 2013, dated 2017).

Columns and labels:
[1] = biological target: FASN Keto-reductase Domain (hFASN enzyme, full length) (Homo sapiens (Human), UniProt P49327); experiment: Fatty Acid Synthase Keto-reductase Domain (FASN KR) Inhibition; type: biochemical; conditions: NADPH oxidation at 340 nm, ethyl acetoacetate substrate
Method: After 20 minutes incubation at room temperature the plate was measured again (T2).
The decrease in absorbance was calculated as (Absorbance before incubation T1)−(Absorbance following incubation T2).
Raw data generated by the instrument were normalized to % Controlmin values, which were calculated as: % Controlmin=100*(x−mLC)/(mHC−mLC)
where mLC and mHC were the means of the low control wells and high control wells on the plate, after manual exclusion of outliers. A plot of Controlmin versus test compound concentration was fitted to a 4-parameter logistic curve using a non-linear least squares regression method.

A2780 ovarian cells = experiment: A2780 Ovarian Cell Proliferation Assay in Lipid Reduced Medium, with Palmitate; type: cell-based; conditions: Homo sapiens, 10% lipid-reduced serum, 25 μM palmitate, 96 h, MTT, read-out: pIC50 With Palmitate (converted)
Method: The biological assays described below correspond to comparative assays for ovarian cell proliferation.
2500 cells were seeded in a 96-well clear well plate in 200 μL RPM11640 with 10% Fetal Calf Serum (Hyclone), and incubated at 37° C., 5% CO2. Blanks were wells without cells. The next day the culture medium was aspirated and replaced by 160 μL culture medium with 10% Lipid-Reduced Serum (LRS, Hyclone). […] After 96 h incubation, an MTT assay was performed.

[2] = biological target: hFASN enzyme (full length) (Homo sapiens (Human), UniProt P49327); experiment: Fatty Acid Synthase (FASN) Inhibition Scintillation Proximity Assay; type: biochemical; conditions: 3H-acetyl-CoA and malonyl-CoA substrates, SPA, mean if tested more than once
Chain of hFASN enzyme (full length) (P49327 whole entry): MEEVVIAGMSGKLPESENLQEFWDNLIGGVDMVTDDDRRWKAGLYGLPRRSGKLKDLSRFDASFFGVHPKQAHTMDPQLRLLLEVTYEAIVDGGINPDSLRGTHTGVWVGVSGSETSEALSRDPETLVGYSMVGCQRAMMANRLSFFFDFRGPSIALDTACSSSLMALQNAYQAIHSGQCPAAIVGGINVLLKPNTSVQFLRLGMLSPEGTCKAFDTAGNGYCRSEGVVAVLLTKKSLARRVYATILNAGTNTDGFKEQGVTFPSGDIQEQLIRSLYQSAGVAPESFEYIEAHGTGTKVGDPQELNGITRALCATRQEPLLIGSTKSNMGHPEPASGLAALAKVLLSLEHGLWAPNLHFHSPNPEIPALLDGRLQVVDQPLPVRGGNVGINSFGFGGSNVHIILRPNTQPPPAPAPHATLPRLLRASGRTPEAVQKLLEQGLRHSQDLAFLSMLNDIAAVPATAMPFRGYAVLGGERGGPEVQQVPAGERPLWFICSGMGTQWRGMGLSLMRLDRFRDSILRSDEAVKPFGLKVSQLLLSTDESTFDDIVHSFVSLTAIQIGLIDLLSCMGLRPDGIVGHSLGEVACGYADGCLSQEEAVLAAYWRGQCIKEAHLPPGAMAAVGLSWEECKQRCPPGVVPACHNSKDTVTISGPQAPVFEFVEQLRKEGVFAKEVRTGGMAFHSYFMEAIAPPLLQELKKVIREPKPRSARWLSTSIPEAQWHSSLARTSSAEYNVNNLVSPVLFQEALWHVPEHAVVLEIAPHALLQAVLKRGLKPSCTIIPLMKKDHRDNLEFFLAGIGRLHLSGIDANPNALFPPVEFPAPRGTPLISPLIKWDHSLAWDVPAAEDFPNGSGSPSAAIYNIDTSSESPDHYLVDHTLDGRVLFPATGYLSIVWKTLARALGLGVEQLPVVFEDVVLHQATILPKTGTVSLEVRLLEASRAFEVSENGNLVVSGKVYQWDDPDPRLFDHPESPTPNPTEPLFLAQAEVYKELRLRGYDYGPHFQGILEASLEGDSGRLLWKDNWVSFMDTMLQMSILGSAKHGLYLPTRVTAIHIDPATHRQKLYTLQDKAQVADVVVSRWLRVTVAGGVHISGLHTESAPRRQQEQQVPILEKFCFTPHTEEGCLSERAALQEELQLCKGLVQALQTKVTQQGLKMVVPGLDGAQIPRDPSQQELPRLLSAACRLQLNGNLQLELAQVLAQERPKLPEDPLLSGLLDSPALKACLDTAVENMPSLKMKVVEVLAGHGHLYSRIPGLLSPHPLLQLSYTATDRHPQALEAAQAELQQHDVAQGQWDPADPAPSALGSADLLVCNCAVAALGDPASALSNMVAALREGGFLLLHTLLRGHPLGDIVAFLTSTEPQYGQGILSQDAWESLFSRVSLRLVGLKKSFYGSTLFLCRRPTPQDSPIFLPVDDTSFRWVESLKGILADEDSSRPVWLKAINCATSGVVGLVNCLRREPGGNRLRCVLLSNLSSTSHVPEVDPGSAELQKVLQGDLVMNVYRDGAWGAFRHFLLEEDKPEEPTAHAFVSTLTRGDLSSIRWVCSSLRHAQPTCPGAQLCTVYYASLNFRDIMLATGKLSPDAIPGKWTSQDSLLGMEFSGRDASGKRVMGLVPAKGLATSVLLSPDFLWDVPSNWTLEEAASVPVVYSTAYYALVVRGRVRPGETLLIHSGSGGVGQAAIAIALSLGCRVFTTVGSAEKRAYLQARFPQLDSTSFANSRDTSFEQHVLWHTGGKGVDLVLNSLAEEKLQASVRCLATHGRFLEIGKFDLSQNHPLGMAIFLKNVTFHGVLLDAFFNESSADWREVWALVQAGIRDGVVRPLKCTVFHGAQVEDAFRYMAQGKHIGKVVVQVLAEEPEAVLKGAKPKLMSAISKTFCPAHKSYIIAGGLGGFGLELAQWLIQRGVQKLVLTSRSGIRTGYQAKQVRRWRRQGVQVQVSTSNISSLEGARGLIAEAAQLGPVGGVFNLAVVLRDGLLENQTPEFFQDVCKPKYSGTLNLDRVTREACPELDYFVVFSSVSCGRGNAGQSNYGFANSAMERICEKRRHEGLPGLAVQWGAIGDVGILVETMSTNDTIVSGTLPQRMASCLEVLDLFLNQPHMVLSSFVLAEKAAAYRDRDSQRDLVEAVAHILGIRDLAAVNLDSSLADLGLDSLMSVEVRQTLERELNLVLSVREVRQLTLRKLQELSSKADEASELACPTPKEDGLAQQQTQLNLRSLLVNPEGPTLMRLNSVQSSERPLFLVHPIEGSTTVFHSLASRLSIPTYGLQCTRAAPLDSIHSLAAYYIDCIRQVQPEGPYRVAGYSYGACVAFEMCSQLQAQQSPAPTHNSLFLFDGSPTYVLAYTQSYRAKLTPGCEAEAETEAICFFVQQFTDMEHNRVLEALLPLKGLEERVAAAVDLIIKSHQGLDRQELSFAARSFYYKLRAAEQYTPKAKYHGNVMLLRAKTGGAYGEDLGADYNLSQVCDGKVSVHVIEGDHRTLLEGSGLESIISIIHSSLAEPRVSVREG
Summary of the method: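 Full-length human FASN (300 ng, in-house purified) in 100 mM KH2PO4 pH 7.5, 1 mM DTT converts 3H-acetyl-CoA plus malonyl-CoA to hydrophobic 3H-palmitate, captured by streptavidin imaging beads and read on LEADseeker at 610 nm after ≥24 h. Compounds tested 0.01–30 μM; data normalized to plate controls and fitted to 4-parameter logistic curves.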

Chain of FASN Keto-reductase Domain (hFASN enzyme, full length) (P49327 whole entry, the tested form may be a part): as the sequence (P49327 whole entry) above

FASN Keto-reductase Domain pIC50 [1] | IC50 (A2780 ovarian cells) | Human FASN pIC50 [2] | IC50 ([1]; read-out: FASN Keto-reductase Domain pIC50 (converted)) | IC50 ([2]; read-out: Human FASN pIC50 (converted)) | SMILES
7.32 | > 10 µM | 7.26 | – | – | CC1(C)N=C(c2ccc(-c3ccc4cnccc4c3)cc2F)N(C[C@@H]2CCN(C(=O)C3CC3)C2)C1=O [Compound 68, (R)-1-((1-(cyclopropanecarbonyl)pyrrolidin-3-yl)methyl)-2-(2-fluoro-4-(isoquinolin-6-yl)phenyl)-4,4-dimethyl-1H-imidazol-5(4H)-one]
– | > 10 µM | – | – | – | CC1(C)N=C(c2ccc(-c3ccc4cccc(F)c4c3)cc2F)N(C[C@@H]2CCN(C(=O)C3CC3)C2)C1=O [Compound 67, (R)-1-((1-(cyclopropanecarbonyl)pyrrolidin-3-yl)methyl)-2-(2-fluoro-4-(8-fluoronaphthalen-2-yl)phenyl)-4,4-dimethyl-1H-imidazol-5(4H)-one]
7.17 | – | 7.18 | – | – | Cn1ncc2cc(-c3ccc(C4=NC(C)(C)C(=O)N4C[C@@H]4CCN(C(=O)C5(C)CC5)C4)c(F)c3)ccc21 [Compound 73, (R)-2-(2-fluoro-4-(1-methyl-1H-indazol-5-yl)phenyl)-4,4-dimethyl-1-((1-(1-methylcyclopropanecarbonyl)pyrrolidin-3-yl)methyl)-1H-imidazol-5(4H)-one]
7.14 | – | 7.23 | – | – | CC1(C)N=C(c2ccc(-c3ccc4cnccc4c3)cc2)N(C[C@@H]2CCN(C(=O)C3CC3)C2)C1=O [Compound 28, (R)-1-((1-(cyclopropanecarbonyl)pyrrolidin-3-yl)methyl)-2-(4-(isoquinolin-6-yl)phenyl)-4,4-dimethyl-1H-imidazol-5(4H)-one]
6.10 | – | 6.28 | – | – | Cn1cc(-c2ccc(-c3ccc(C4=NC(C)(C)C(=O)N4CC4CN(C(=O)C5(O)CC5)C4)c(F)c3)cc2)cn1 [Compound 81, 2-(3-fluoro-4′-(1-methyl-1H-pyrazol-4-yl)-[1,1′-biphenyl]-4-yl)-1-((1-(1-hydroxycyclopropanecarbonyl)azetidin-3-yl)methyl)-4,4-dimethyl-1H-imidazol-5(4H)-one]
– | – | – | 0.129 µM | 0.0724 µM | CC1(c2ccccc2)N=C(c2ccc(-c3ccc4[nH]ccc4c3)cc2)N(C[C@@H]2CCN(C(=O)C3CC3)C2)C1=O (mixture of isomers) [Compound 7, (4RS)-2-(4-(1H-Indol-5-yl)phenyl)-1-(((R)-1-(cyclopropanecarbonyl)pyrrolidin-3-yl)methyl)-4-methyl-4-phenyl-1H-imidazol-5(4H)-one]
5.86 | – | 6.29 | – | – | Cn1ncc2cc(-c3ccc(C4=NC(C)(C)C(=O)N4CC4CN(C(=O)C5CC5)C4)c(F)c3)ccc21 [Compound 32, 1-((1-(cyclopropanecarbonyl)azetidin-3-yl)methyl)-2-(2-fluoro-4-(1-methyl-1H-indazol-5-yl)phenyl)-4,4-dimethyl-1H-imidazol-5(4H)-one]
6.14 | – | 6.64 | – | – | CC1(C)N=C(c2ccc(-c3c[nH]c4ccccc34)cc2)N(C[C@@H]2CCN(C(=O)C3CC3)C2)C1=O [Compound 65, (R)-2-(4-(1H-indol-3-yl)phenyl)-1-((1-(cyclopropanecarbonyl)pyrrolidin-3-yl)methyl)-4,4-dimethyl-1H-imidazol-5(4H)-one]
7.28 | > 10 µM | 7.48 | – | – | CC1(C)N=C(c2ccc(-c3ccc4cc(F)ccc4c3)cc2F)N(C[C@@H]2CCN(C(=O)C3CC3)C2)C1=O [Compound 66, (R)-1-((1-(cyclopropanecarbonyl)pyrrolidin-3-yl)methyl)-2-(2-fluoro-4-(6-fluoronaphthalen-2-yl)phenyl)-4,4-dimethyl-1H-imidazol-5(4H)-one]
6.33 | – | 7.17 | – | – | CC1(C)N=C(c2ccc(-c3ccc4cnccc4c3)cc2F)N(CC2CN(C(=O)C3CC3)C2)C1=O [Compound 56, 1-((1-(cyclopropanecarbonyl)azetidin-3-yl)methyl)-2-(2-fluoro-4-(isoquinolin-6-yl)phenyl)-4,4-dimethyl-1H-imidazol-5(4H)-one]
6.26 | – | 6.69 | – | – | CC1(C)N=C(c2ccc(-c3c[nH]c4ccccc34)cc2F)N(CC2CN(C(=O)C3CC3)C2)C1=O [Compound 62, 1-((1-(cyclopropanecarbonyl)azetidin-3-yl)methyl)-2-(2-fluoro-4-(1H-indol-3-yl)phenyl)-4,4-dimethyl-1H-imidazol-5(4H)-one]
7.20 | – | 7.34 | – | – | CC1(C)N=C(c2ccc(-c3ccc4cccnc4c3)cc2F)N(C[C@@H]2CCN(C(=O)C3CC3)C2)C1=O [Compound 49, (R)-1-((1-(cyclopropanecarbonyl)pyrrolidin-3-yl)methyl)-2-(2-fluoro-4-(quinolin-7-yl)phenyl)-4,4-dimethyl-1H-imidazol-5(4H)-one]
6.65 | – | 6.79 | – | – | CC1(C)N=C(c2ccc(-c3ccc4cncnc4c3)cc2F)N(C[C@@H]2CCN(C(=O)C3CC3)C2)C1=O [Compound 44, (R)-1-((1-(cyclopropanecarbonyl)pyrrolidin-3-yl)methyl)-2-(2-fluoro-4-(quinazolin-7-yl)phenyl)-4,4-dimethyl-1H-imidazol-5(4H)-one]
7.27 | – | 7.27 | – | – | Cc1cc(-c2ccc(-c3cnn(C)c3)cc2)ccc1C1=NC(C)(C)C(=O)N1C[C@@H]1CCN(C(=O)C2(C)CC2)C1 [Compound 84, (R)-4,4-dimethyl-2-(3-methyl-4′-(1-methyl-1H-pyrazol-4-yl)-[1,1′-biphenyl]-4-yl)-1-((1-(1-methylcyclopropanecarbonyl)pyrrolidin-3-yl)methyl)-1H-imidazol-5(4H)-one]
7.23 | – | 7.45 | – | – | CC1(C(=O)N2CC(CN3C(=O)C(C)(C)N=C3c3ccc(-c4ccc5cc(F)ccc5c4)cc3F)C2)CC1 [Compound 72, 2-(2-fluoro-4-(6-fluoronaphthalen-2-yl)phenyl)-4,4-dimethyl-1-((1-(1-methylcyclopropanecarbonyl)azetidin-3-yl)methyl)-1H-imidazol-5(4H)-one]
5.57 | – | 6.26 | – | – | Cn1cc(-c2ccc(-c3ccc(C4=NC(C)(C)C(=O)N4CC4CN(C(=O)C5CC5)C4)cc3)cc2)cn1 [Compound 17, 1-((1-(cyclopropanecarbonyl)azetidin-3-yl)methyl)-4,4-dimethyl-2-(4′-(1-methyl-1H-pyrazol-4-yl)-[1,1′-biphenyl]-4-yl)-1H-imidazol-5(4H)-one]
6.44 | – | 6.82 | – | – | Cc1cc(-c2ccc3c(cnn3C)c2)ccc1C1=NC(C)(C)C(=O)N1CC1CN(C(=O)C2(C)CC2)C1 [Compound 77, 4,4-dimethyl-2-(2-methyl-4-(1-methyl-1H-indazol-5-yl)phenyl)-1-((1-(1-methylcyclopropanecarbonyl)azetidin-3-yl)methyl)-1H-imidazol-5(4H)-one]
6.92 | – | 7.52 | – | – | CC1(C)N=C(c2ccc(-c3ccc4cc(F)ccc4c3)cc2F)N(CC2CN(C(=O)C3(O)CC3)C2)C1=O [Compound 79, 2-(2-fluoro-4-(6-fluoronaphthalen-2-yl)phenyl)-1-((1-(1-hydroxycyclopropanecarbonyl)azetidin-3-yl)methyl)-4,4-dimethyl-1H-imidazol-5(4H)-one]
6.38 | – | 6.74 | – | – | Cn1cc(-c2ccc(-c3ccc(C4=NC(C)(C)C(=O)N4CC4CN(C(=O)C5CC5)C4)c(F)c3)cc2)cn1 [Compound 33, 1-((1-(cyclopropanecarbonyl)azetidin-3-yl)methyl)-2-(3-fluoro-4′-(1-methyl-1H-pyrazol-4-yl)-[1,1′-biphenyl]-4-yl)-4,4-dimethyl-1H-imidazol-5(4H)-one]
